Converted amounts (≈) assume the structure as drawn.
Experiments:
Experiment in all cases: Antibacterial activity MIC, two-fold agar dilution
Assay type in all cases: cell-based
[1] = system: Providencia rettgeri ATCC 9250; conditions: ATCC9250, Muller-Hinton agar, 37° C., 20 hours
Description: (§1) These MIC values were taken by employing a two-fold dilution method: that is, two-fold serial dilutions of each of the test compounds were made and dispersed in a Muller-Hinton agar medium; 2 μl of the standard test strain which had the 10^7 CFU(Colony Forming Unit) per ml was inoculated on the medium; and these were incubated at 37° C. for 20 hours. The results of the MIC tests are shown Table 1.

[2] = system: Staphylococcus aureus ATCC 10537; conditions: ATCC10537; Staphylococcus aureus ATCC 10537; Muller-Hinton agar, 37° C., 20 hours; read-out: Antibacterial Activity MIC
Description: as §1

[3] = system: Klebsiella pneumoniae ATCC 10031; conditions: ATCC10031; Klebsiella pneumoniae ATCC 10031; Muller-Hinton agar, 37° C., 20 hours; read-out: Antibacterial Activity MIC
Description: as §1

[4] = system: Escherichia coli ATCC 25922; conditions: ATCC25922, Muller-Hinton agar, 37° C., 20 hours
Description: as §1

[5] = system: Escherichia coli ATCC 10536; conditions: ATCC10536, Muller-Hinton agar, 37° C., 20 hours
Description: as §1

[6] = system: Staphylococcus epidermidis ATCC 12228; conditions: ATCC12228; Staphylococcus epidermidis ATCC 12228; Muller-Hinton agar, 37° C., 20 hours; read-out: Antibacterial Activity MIC
Description: as §1

[7] = system: Shigella sonnei ATCC 11060; conditions: ATCC11060, Muller-Hinton agar, 37° C., 20 hours
Description: as §1

[8] = system: Pseudomonas aeruginosa ATCC 10145; conditions: ATCC10145; Pseudomonas aeruginosa ATCC 10145; Muller-Hinton agar, 37° C., 20 hours; read-out: Antibacterial Activity MIC
Description: as §1

[9] = system: Streptococcus faecalis ATCC 29212; conditions: Enterococcus faecalis, ATCC29212; Streptococcus faecalis ATCC 29212; Muller-Hinton agar, 37° C., 20 hours; read-out: Antibacterial Activity MIC
Description: as §1

[10] = system: Proteus vulgaris ATCC 6059; conditions: ATCC6059; Proteus vulgaris ATCC 6059; Muller-Hinton agar, 37° C., 20 hours; read-out: Antibacterial Activity MIC
Description: as §1

[11] = system: Acinetobacter calcoaceticus ATCC 15473; conditions: ATCC15473; Acinetobacter calcoaceticus ATCC 15473; Muller-Hinton agar, 37° C., 20 hours; read-out: Antibacterial Activity MIC
Description: as §1

[12] = system: Morganella morganii ATCC 8076h; conditions: ATCC8076H, Muller-Hinton agar, 37° C., 20 hours
Description: as §1

[13] = system: Micrococcus luteus ATCC 9341; conditions: ATCC9341; Micrococcus luteus ATCC 9341; Muller-Hinton agar, 37° C., 20 hours; read-out: Antibacterial Activity MIC
Description: as §1

[14] = system: Serratia marcescens ATCC 27117; conditions: ATCC27117; Serratia marcescens ATCC 27117; Muller-Hinton agar, 37° C., 20 hours; read-out: Antibacterial Activity MIC
Description: as §1

[15] = system: Salmonella typhimurium ATCC 14028; conditions: Salmonella enterica; Salmonella typhimurium ATCC 14028; Muller-Hinton agar, 37° C., 20 hours; read-out: Antibacterial Activity MIC
Description: as §1

[16] = system: Proteus mirabilis ATCC 25933; conditions: ATCC25933; Proteus mirabilis ATCC 25933; Muller-Hinton agar, 37° C., 20 hours; read-out: Antibacterial Activity MIC
Description: as §1

[17] = system: Citrobacter freundii ATCC 8090; conditions: ATCC8090; Citrobacter freundii ATCC 8090; Muller-Hinton agar, 37° C., 20 hours; read-out: Antibacterial Activity MIC
Description: as §1

[18] = system: Enterobacter aerogenes ATCC 29751; conditions: Klebsiella aerogenes, ATCC29751; Enterobacter aerogenes ATCC 29751; Muller-Hinton agar, 37° C., 20 hours; read-out: Antibacterial Activity MIC
Description: as §1

[19] = system: Pseudomonas aeruginosa ATCC 27853; conditions: ATCC27853; Pseudomonas aeruginosa ATCC 27853; Muller-Hinton agar, 37° C., 20 hours; read-out: Antibacterial Activity MIC
Description: as §1

[20] = system: Shigella flexneri ATCC 11836; conditions: ATCC11836, Muller-Hinton agar, 37° C., 20 hours
Description: as §1

[21] = system: Enterobacter cloacae ATCC 27508; conditions: ATCC27508; Enterobacter cloacae ATCC 27508; Muller-Hinton agar, 37° C., 20 hours; read-out: Antibacterial Activity MIC
Description: as §1

[22] = system: Bacillus cereus ATCC 11778; conditions: ATCC11778; Bacillus cereus ATCC 11778; Muller-Hinton agar, 37° C., 20 hours; read-out: Antibacterial Activity MIC
Description: as §1

[23] = system: Pseudomonas aeruginosa ATCC 25619; conditions: ATCC25619; Pseudomonas aeruginosa ATCC 25619; Muller-Hinton agar, 37° C., 20 hours; read-out: Antibacterial Activity MIC
Description: as §1

[24] = system: Staphylococcus aureus ATCC 6538p; conditions: ATCC6538P; Staphylococcus aureus ATCC 6538p; Muller-Hinton agar, 37° C., 20 hours; read-out: Antibacterial Activity MIC
Description: as §1

[25] = system: Bacillus megaterium ATCC 9885; conditions: Priestia megaterium, ATCC9885; Bacillus megaterium ATCC 9885; Muller-Hinton agar, 37° C., 20 hours; read-out: Antibacterial Activity MIC
Description: as §1

Structure (SMILES)	MIC [1] [µg/mL]	MIC [2] [µg/mL]	MIC [3] [µg/mL]	MIC [4] [µg/mL]	MIC [5] [µg/mL]	MIC [6] [µg/mL]	MIC [7] [µg/mL]	MIC [8] [µg/mL]	MIC [9] [µg/mL]	MIC [10] [µg/mL]	MIC [11] [µg/mL]	MIC [12] [µg/mL]	MIC [13] [µg/mL]	MIC [14] [µg/mL]	MIC [15] [µg/mL]	MIC [16] [µg/mL]	MIC [17] [µg/mL]	MIC [18] [µg/mL]	MIC [19] [µg/mL]	MIC [20] [µg/mL]	other results
C[n+]1c(N)nc(N)nc1SCC1=C(C(=O)[O-])N2C(=O)C(NC(=O)/C(=N\OC(C)(C)C(=O)O)c3csc(N)n3)[C@H]2SC1 (stereo partly shown) [Compound I-23, 7-[(Z)-2-(2-aminothiazol-4-yl)-2-(2-carboxyprop-2-oxyimino)acetamido]-3-(4,6-diamino-1-methyl-1,3,5-triazinium-2-yl)thiomethyl-3-cephem-4-carboxylate]	≤ 0.008	2 (≈ 3.2 µM)	0.063 (≈ 0.101 µM)	0.063 (≈ 0.101 µM)	0.063 (≈ 0.101 µM)	2 (≈ 3.2 µM)	0.063 (≈ 0.101 µM)	2 (≈ 3.2 µM)	> 128	0.063 (≈ 0.101 µM)	4 (≈ 6.4 µM)	≤ 0.008	1 (≈ 1.6 µM)	0.13 (≈ 0.208 µM)	0.13 (≈ 0.208 µM)	0.063 (≈ 0.101 µM)	0.13 (≈ 0.208 µM)	2 (≈ 3.2 µM)	1 (≈ 1.6 µM)	0.063 (≈ 0.101 µM)	MIC [21]: 0.031 µg/mL (≈ 0.0496 µM); MIC [22]: 128 µg/mL (≈ 205 µM); MIC [23]: 1 µg/mL (≈ 1.6 µM); MIC [24]: 8 µg/mL (≈ 12.8 µM); MIC [25]: 0.5 µg/mL (≈ 0.8 µM)
CC[n+]1c(N)cc(SCC2=C(C(=O)[O-])N3C(=O)[C@@H](NC(=O)/C(=N\OC)c4csc(N)n4)[C@H]3SC2)nc1N [Compound I-22, (6R,7)-7-[(Z)-2-(2-aminothiazol-4-yl)-2-(methoxyimino)acetamido]-3-(2,6-diamino-1-ethylpyrimidinium-4-yl)thiomethyl-3-cephem-4-carboxylate]	≤ 0.008	0.5 (≈ 0.884 µM)	≤ 0.008	0.063 (≈ 0.111 µM)	0.063 (≈ 0.111 µM)	0.25 (≈ 0.442 µM)	0.031 (≈ 0.0548 µM)	8 (≈ 14.1 µM)	8 (≈ 14.1 µM)	0.25 (≈ 0.442 µM)	8 (≈ 14.1 µM)	≤ 0.008	0.031 (≈ 0.0548 µM)	0.25 (≈ 0.442 µM)	0.13 (≈ 0.23 µM)	0.25 (≈ 0.442 µM)	0.25 (≈ 0.442 µM)	0.25 (≈ 0.442 µM)	2 (≈ 3.54 µM)	0.063 (≈ 0.111 µM)	MIC [21]: ≤ 0.008 µg/mL; MIC [22]: 64 µg/mL (≈ 113 µM); MIC [23]: 1 µg/mL (≈ 1.77 µM); MIC [24]: 0.25 µg/mL (≈ 0.442 µM); MIC [25]: 0.25 µg/mL (≈ 0.442 µM)
CC(O/N=C(\C(=O)N[C@@H]1C(=O)N2C(C(=O)[O-])=C(CSc3cc(N)[n+](C)c(N)n3)CS[C@H]12)c1csc(N)n1)C(=O)O (stereo partly drawn) [Compound I-19, (6R,7R)-7-[(Z)-2-(2-aminothiazol-4-yl)-2-(R,S-carboxyeth-1-oxyimino)acetamido]-3-(2,6-diamino-1-methylpyrimidinium-4-yl)thiomethyl-3-cephem-4-carboxylate]	≤ 0.008	4 (≈ 6.56 µM)	0.063 (≈ 0.103 µM)	0.13 (≈ 0.213 µM)	0.13 (≈ 0.213 µM)	4 (≈ 6.56 µM)	0.25 (≈ 0.41 µM)	4 (≈ 6.56 µM)	128 (≈ 210 µM)	0.25 (≈ 0.41 µM)	8 (≈ 13.1 µM)	≤ 0.008	0.5 (≈ 0.82 µM)	0.25 (≈ 0.41 µM)	0.25 (≈ 0.41 µM)	0.13 (≈ 0.213 µM)	0.13 (≈ 0.213 µM)	1 (≈ 1.64 µM)	2 (≈ 3.28 µM)	0.016 (≈ 0.0262 µM)	MIC [21]: 0.031 µg/mL (≈ 0.0508 µM); MIC [22]: 128 µg/mL (≈ 210 µM); MIC [23]: 1 µg/mL (≈ 1.64 µM); MIC [24]: 4 µg/mL (≈ 6.56 µM); MIC [25]: 0.25 µg/mL (≈ 0.41 µM)
CC(O/N=C(\C(=O)N[C@@H]1C(=O)N2C(C(=O)[O-])=C(CSc3cc(N)nc(N)[n+]3C)CS[C@H]12)c1csc(N)n1)C(=O)O (stereo partly drawn) [Compound I-3, (6R,7R)-7-[(Z)-2-(2-aminothiazol-4-yl)-2-(R,S-carboxyeth-1-oxyimino)acetamido]-3-(2,6-diamino-3-methylpyrimidinium-4-yl)thiomethyl-3-cephem-4-carboxylate]	≤ 0.008	4 (≈ 6.56 µM)	0.031 (≈ 0.0508 µM)	0.13 (≈ 0.213 µM)	0.13 (≈ 0.213 µM)	2 (≈ 3.28 µM)	0.25 (≈ 0.41 µM)	1 (≈ 1.64 µM)	> 128	0.063 (≈ 0.103 µM)	2 (≈ 3.28 µM)	≤ 0.008	0.5 (≈ 0.82 µM)	0.13 (≈ 0.213 µM)	0.5 (≈ 0.82 µM)	0.31 (≈ 0.508 µM)	0.13 (≈ 0.213 µM)	2 (≈ 3.28 µM)	1 (≈ 1.64 µM)	0.031 (≈ 0.0508 µM)	MIC [21]: 0.016 µg/mL (≈ 0.0262 µM); MIC [22]: 64 µg/mL (≈ 105 µM); MIC [23]: 1 µg/mL (≈ 1.64 µM); MIC [24]: 4 µg/mL (≈ 6.56 µM); MIC [25]: 0.25 µg/mL (≈ 0.41 µM)
